Reference: patent US10329278B2, “Pharmaceutical compounds” (Heptares Therapeutics Limited, priority 2017, dated 2019)
Read-outs that look alike come from different tables or passages of the source.

Tests used:
[1] = biological target: T1, human muscarinic M1 receptor (Homo sapiens, UniProt P11229); assay: Alphascreen Surefire phospho-ERK1/2 functional assay, M1; type: cell-based; settings: for pEC50 M1 / % Emax cf. ACh (M1) / EC50: CHO cells stably expressing human M1; for pEC50 M1 / EC50: agonist 5 min, 37° C.; for % Emax cf. ACh (M1) / Emax: relative to ACh; for EC50: read-out: pEC50 M1 (converted); for Emax: CHO, read-out: % Emax cf. ACh (M1), CHO cells stably expressing human M1
T1 sequence (P11229 1-460): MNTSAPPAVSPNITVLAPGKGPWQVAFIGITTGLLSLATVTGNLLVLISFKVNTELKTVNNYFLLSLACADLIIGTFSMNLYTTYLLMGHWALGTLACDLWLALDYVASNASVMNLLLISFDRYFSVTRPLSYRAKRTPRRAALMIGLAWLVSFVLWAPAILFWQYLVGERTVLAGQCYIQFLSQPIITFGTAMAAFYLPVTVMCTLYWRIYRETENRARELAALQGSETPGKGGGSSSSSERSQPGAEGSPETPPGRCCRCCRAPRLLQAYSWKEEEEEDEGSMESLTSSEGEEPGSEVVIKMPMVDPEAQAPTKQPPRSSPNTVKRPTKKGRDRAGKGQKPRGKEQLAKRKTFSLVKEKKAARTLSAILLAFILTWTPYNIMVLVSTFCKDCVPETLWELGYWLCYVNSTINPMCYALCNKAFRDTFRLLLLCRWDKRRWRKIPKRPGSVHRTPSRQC
Description: (§1) ERK1/2 phosphorylation is a downstream consequence of both Gq/11 and Gi/o protein coupled receptor activation, making it highly suitable for the assessment of M1, M3 (Gq/11 coupled) and M2, M4 receptors (Gi/o coupled), rather than using different assay formats for different receptor subtypes. CHO cells stably expressing the human muscarinic M1, M2, M3 or M4 receptor were plated (25K/well) onto 96-well tissue culture plates in MEM-alpha+10% dialysed FBS. Once adhered, cells were serum-starved overnight. Agonist stimulation was performed by the addition of 5 μL agonist to the cells for 5 min (37° C.). Media was removed and 50 μL of lysis buffer added. After 15 min, a 4 μL sample was transferred to 384-well plate and 7 μL of detection mixture added.

[2] = biological target: T2, human muscarinic M4 receptor (Homo sapiens, UniProt P08173); assay: Alphascreen Surefire phospho-ERK1/2 functional assay, M4; type: cell-based; settings: for pEC50 M4 / % Emax cf. ACh (M4) / EC50: CHO cells stably expressing human M4; for pEC50 M4 / EC50: agonist 5 min, 37° C.; for EC50: read-out: pEC50 M4 (converted); for Emax: CHO
T2 construct: expressed in transfected cells
T2 sequence (P08173 1-479): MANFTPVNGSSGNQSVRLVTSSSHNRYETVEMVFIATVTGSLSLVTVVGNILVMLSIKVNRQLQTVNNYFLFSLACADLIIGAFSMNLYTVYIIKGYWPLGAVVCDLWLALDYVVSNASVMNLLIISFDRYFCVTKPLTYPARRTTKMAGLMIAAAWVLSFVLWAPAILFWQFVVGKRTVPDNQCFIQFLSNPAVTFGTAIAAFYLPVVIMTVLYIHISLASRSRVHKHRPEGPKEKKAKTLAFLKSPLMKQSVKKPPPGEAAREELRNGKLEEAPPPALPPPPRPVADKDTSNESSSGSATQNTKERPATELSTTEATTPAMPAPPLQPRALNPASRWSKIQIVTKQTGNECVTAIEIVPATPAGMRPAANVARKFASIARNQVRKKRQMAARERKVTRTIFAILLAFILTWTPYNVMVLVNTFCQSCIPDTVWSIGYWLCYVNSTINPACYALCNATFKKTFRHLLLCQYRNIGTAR
Description: as §1

[3] = read-out: % Emax cf. ACh (M4), CHO cells stably expressing human M4, relative to ACh

Row | SMILES | pEC50 M1 [1] | % Emax cf. ACh (M1) [1] [%] | pEC50 M4 [2] | % Emax cf. ACh (M4) ([2]; relative to ACh) [%] | EC50 [1] [nM] | EC50 [2] [nM] | Emax [1] [%] | Emax [2, 3] [%] | Emax ([2]; read-out: % Emax cf. ACh (M4)) [%]
1 | COC(=O)N1C2COCC1CC(N1CC3C(C1)C3C(=O)N(C)C(C)C)C2 (single isomer, unassigned; isomer 1) [10-5 Isomer 1] | 6.30 | 99 | 5.91 | 81 | – | – | – | – | –
2 | CCN(C(=O)C1C2CN(C3CC4COCC(C3)N4C(=O)OC)CC21)C(C)C (single isomer, unassigned; isomer 2) [10-7 Isomer 2] | 6.83 | 100 | 6.23 | 64 | – | – | – | – | –
3 | CCOC(=O)N1CCC2(CC(N3CC4C(C3)C4OC(C)c3ccccc3)C2)C1 (single isomer, unassigned) [2-28 Isomer 1] | – | 58 | – | 21 | 575 | > 20000 | – | – | –
4 | CCOC(=O)N1CC2(CC(N3C[C@@H]4[C@H](C3)[C@H]4c3csc(C)n3)C2)C1 [Example 1-4, ethyl 6-[(1R,5S,6r)-6-(2-methyl-1,3-thiazol-4-yl)-3-azabicyclo[3.1.0]hex-3-yl]-2-azaspiro[3.3]heptane-2-carboxylate] | – | – | – | – | 4570 | 617 | 55 | 47 | –
5 | CCOC(=O)N1C2COCC1CC(N1CC3C(C1)C3C(=O)N(C)C1CC1)C2 (single isomer, unassigned; isomer 1) [10-8 Isomer 1] | 5.99 | 116 | 4.84 | 47 | – | – | – | – | –
6 | CCOC(=O)N1CCC2(CC(N3CC4C(C3)C4C(CC)=NOC)C2)C1 (single isomer, unassigned) [2-25 Isomer 2] | – | 37 | – | – | 1290 | 437 | – | 35 | –
7 | CCN(CC)C(=O)C1C2CN(C3CC4CCCC(C3)N4C(=O)OC)CC21 (single isomer, unassigned; isomer 1) [9-3 Isomer 1] | 6.40 | 106 | 6.12 | 60 | – | – | – | – | –
8 | CCN(C(=O)C1C2CN(C3CC4COCC(C3)N4C(=O)OC)CC21)C(C)C (single isomer, unassigned; isomer 1) [10-7 Isomer 1] | 7.42 | 99 | 6.79 | 69 | – | – | – | – | –
9 | CCOC(=O)N1C2COCC1CC(N1CC3C(C1)C3C(=O)N(C)C1CC1)C2 (single isomer, unassigned; isomer 2) [10-8 Isomer 2] | 5.65 | 85 | 5.67 | 32 | – | – | – | – | –
10 | COC(=O)N1C2COCC1CC(N1CC3C(C1)C3C(=O)N1CCCCC1)C2 (single isomer, unassigned; isomer 2) [10-12 Isomer 2] | 5.99 | 99 | 4.85 | 86 | – | – | – | – | –
11 | CCN(CC)C(=O)C1C2CN(C3CC4COCC(C3)N4C(=O)OC)CC21 (single isomer, unassigned; isomer 2) [10-3 Isomer 2] | 5.75 | 81 | < 4.70 | 25 | – | – | – | – | –
12 | CCOC(=O)N1CCC2(CC(N3CC4C(C3)C4N(CC)CC(F)(F)F)C2)C1 (mixture of isomers) [2-27 Mixture of isomers] | – | – | – | – | > 20000 | 1480 | 20 | 32 | –
13 | COC(=O)N1C2COCC1CC(N1CC3C(C1)C3C(=O)N(C)C(C)C)C2 (single isomer, unassigned; isomer 2) [10-5 Isomer 2] | 5.66 | 101 | 4.90 | 90 | – | – | – | – | –
14 | CCOC(=O)N1CCC(N2C[C@@H]3[C@H](C2)[C@H]3C(=O)N(CC)CC)CC1 [Example 4-1] | – | – | – | – | 234 | 708 | 84 | 35 | –
15 | CC(=O)OCC[N+](C)(C)C [ACh, acetylcholine, reference compound] | – | – | – | – | – | – | – | – | 109
16 | CCOC(=O)N1CC2(CC(N3C[C@@H]4[C@H](C3)[C@H]4C(=O)N(CC)CC)C2)C1 [Example 1-2, ethyl 6-[(1R,5S,6r)-6-(diethylcarbamoyl)-3-azabicyclo[3.1.0]hex-3-yl]-2-azaspiro[3.3]heptane-2-carboxylate] | – | – | – | – | 132 | 955 | 110 | 81 | –
17 | CCOC(=O)N1C2CCCC1CC(N1CC3C(C1)C3C(=O)N(C)CC)C2 (single isomer, unassigned; isomer 2) [9-1 Isomer 2] | 6.01 | 93 | < 4.70 | 24 | – | – | – | – | –

Now from value to molecule, other results behind:

Row | pEC50 M1 [1] | % Emax cf. ACh (M1) [1] [%] | pEC50 M4 [2] | % Emax cf. ACh (M4) ([2]; relative to ACh) [%] | EC50 [1] [nM] | EC50 [2] [nM] | Emax [1] [%] | Emax [2, 3] [%] | SMILES | Emax ([2]; read-out: % Emax cf. ACh (M4)) [%]
18 | 5.94 | 56 | 6.21 | 73 | – | – | – | – | CCOC(=O)N1C2CCC1CC(N1CC3C(C1)C3c1csc(C)n1)C2 (single isomer, unassigned; isomer 2) [7-6 Isomer 2] | –
19 | 6.78 | 123 | 5.58 | 45 | – | – | – | – | CCOC(=O)N1C2CCC1CC(N1CC3C(C1)C3C(=O)N(CC)CC)C2 (single isomer, unassigned; isomer 1) [7-3 Isomer 1] | –
20 | < 4.70 | 23 | 6.13 | 38 | – | – | – | – | CCOC(=O)N1C2CCC1CC(N1CC3C(CN(CC)C(C)=O)C3C1)C2 (single isomer, unassigned; isomer 2) [7-5 Isomer 2] | –
21 | 6.66 | 113 | 4.96 | 53 | – | – | – | – | CCOC(=O)N1C2CCC1CC(N1CC3C(C1)C3C(=O)N(C)CC)C2 (single isomer, unassigned; isomer 2) [7-2 Isomer 2] | –
22 | 5.67 | 83 | 5.80 | 62 | – | – | – | – | CCOC(=O)C1C2CN(C3CC4CCC(C3)N4C(=O)OCC)CC21 (single isomer, unassigned; isomer 2) [7-1 Isomer 2] | –
23 | 6.11 | 116 | < 4.70 | 14 | – | – | – | – | CCOC(=O)N1C2CCC1CC(N1CC3C(C1)C3C(=O)N(C)CC)C2 (single isomer, unassigned; isomer 1) [7-2 Isomer 1] | –
24 | 6.56 | 102 | 5.87 | 41 | – | – | – | – | CCOC(=O)N1C2CCCC1CC(N1CC3C(C1)C3C(=O)N(CC)CC)C2 (single isomer, unassigned; isomer 1) [9-2 Isomer 1] | –
